# Test results published in paper PMC7979524 (Pharmacological research, 2021).
# Legend:
# [1] = molecular target: adenosine A2A receptor (Homo sapiens, UniProt P29274); type: cell-based
# [2] = molecular target: T1, adenosine A2B receptor (Homo sapiens, UniProt P29275); type: cell-based
# T1 sequence (P29275 1-332): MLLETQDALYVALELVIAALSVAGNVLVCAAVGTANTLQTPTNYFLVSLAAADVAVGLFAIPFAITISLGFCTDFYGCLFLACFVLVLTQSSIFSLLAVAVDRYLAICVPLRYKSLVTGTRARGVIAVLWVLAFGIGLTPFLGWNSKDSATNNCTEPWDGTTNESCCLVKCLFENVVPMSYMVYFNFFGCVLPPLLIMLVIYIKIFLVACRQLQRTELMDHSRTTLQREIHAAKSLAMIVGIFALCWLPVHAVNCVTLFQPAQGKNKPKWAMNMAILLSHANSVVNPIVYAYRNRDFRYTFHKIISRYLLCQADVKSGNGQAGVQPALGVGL
# Chain of adenosine A2A receptor (P29274 whole entry): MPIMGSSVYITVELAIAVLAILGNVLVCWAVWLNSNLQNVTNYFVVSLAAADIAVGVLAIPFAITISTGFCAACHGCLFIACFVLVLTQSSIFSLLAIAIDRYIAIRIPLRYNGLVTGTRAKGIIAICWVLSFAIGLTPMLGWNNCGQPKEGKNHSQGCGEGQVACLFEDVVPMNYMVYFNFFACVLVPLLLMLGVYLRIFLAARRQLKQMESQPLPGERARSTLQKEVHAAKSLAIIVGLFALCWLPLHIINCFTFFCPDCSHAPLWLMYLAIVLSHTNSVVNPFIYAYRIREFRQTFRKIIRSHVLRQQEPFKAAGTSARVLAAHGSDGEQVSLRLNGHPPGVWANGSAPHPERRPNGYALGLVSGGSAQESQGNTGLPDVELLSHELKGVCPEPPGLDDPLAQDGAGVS
smiles,measurement,setting,value
"COc1cc(/C=C\C(=O)CC(=O)/C=C/c2ccc(O)c(OC)c2)ccc1O [CTCUR, cis-trans curcumin]",Ki,[1],5.1 µM
same,Ki,[2],6.7 µM
